Experimental data from ChEMBL document CHEMBL4651402, “Screening of ~5500 FDA-approved drugs and clinical candidates for anti-SARS-CoV-2 activity” (2021).

Tested on: SARS-CoV-2
Test: microbe, parasite or virus in culture
Conditions: Severe acute respiratory syndrome coronavirus 2, Vero C1008, 48 h

| Structure (SMILES) | IC50 [µM] | IC50 (read-out: pIC50 (converted)) [µM] |
| --- | --- | --- |
| CCCCN1C[C@H](O)[C@@H](O)[C@H](O)[C@H]1CO | > 20 | > 20 |
| CN1C2CCC1CC(OC(c1ccccc1)c1ccccc1)C2 (stereo not drawn) | > 20 | > 20 |
| C[N+]1(C)[C@@H]2CC[C@@H]1CC(OC(=O)C(CO)c1ccccc1)C2 (stereo partly drawn) | > 20 | > 20 |
| CN(CCCCCCCCCCN(C)C(=O)Oc1cccc([N+](C)(C)C)c1)C(=O)Oc1cccc([N+](C)(C)C)c1 | > 20 | > 20 |
| Nc1ncnc2c([C@@H]3N[C@H](CO)[C@@H](O)[C@H]3O)c[nH]c12 | > 100 | > 100 |
| Cn1cc(-c2cccc3cc(C(=O)NC(=N)N)ccc23)cn1 | > 20 | > 20 |
| C[C@H](CCC(=O)O)[C@H]1CC[C@H]2[C@@H]3[C@@H](O)C[C@@H]4C[C@H](O)CC[C@]4(C)[C@H]3C[C@H](O)[C@]12C | > 20 | > 20 |
| COc1ccc(/C=C/C(=O)/C=C(O)/C=C/c2ccc(OC)c(OC)c2)cc1OC | > 20 | > 20 |
| O=c1c(-c2ccc(O)cc2)coc2c(C3O[C@H](CO)[C@@H](O)[C@H](O)[C@H]3O)c(O)ccc12 (stereo partly drawn) | > 20 | > 20 |
| COC1C(OC(=O)/C=C/C=C/C=C/C=C/C(=O)O)CCC2(CO2)C1C1(C)OC1CC=C(C)C (stereo not drawn) | > 20 | > 20 |
| CCc1ccc(OCc2ccccc2C(=O)Nc2ccc3nc(C)cc(N)c3c2)cc1 | > 20 | > 20 |
| CC[C@]1(c2ccccc2)NC(=O)N(C)C1=O | > 20 | > 20 |
| CCCc1nc(C)c2c(=O)nc(-c3cc(S(=O)(=O)N4CCN(CC)CC4)ccc3OCC)[nH]n12 | > 20 | > 20 |
| NNC(=O)CN1C(=O)CN=C(c2ccccc2)c2cc(Br)ccc21 | > 20 | > 20 |
| NC(C(=O)O)C(O)c1ccc(O)c(O)c1 (stereo not drawn) | > 20 | > 20 |
| CC(C)C[C@H]1C(=O)N2CCC[C@H]2[C@]2(O)O[C@](NC(=O)[C@@H]3C=C4c5cccc6[nH]c(Br)c(c56)CC4N(C)C3)(C(C)C)C(=O)N12 (stereo partly drawn) | > 20 | > 20 |
| O=C(Nc1cccnn1)N1CCC(=Cc2cccc(Oc3ccc(C(F)(F)F)cn3)c2)CC1 | > 20 | > 20 |

| Structure (SMILES) | IC50 [µM] | IC50 (read-out: pIC50 (converted)) [µM] |
| --- | --- | --- |
| COP(=O)(c1cc(C)cc(/C=C/C#N)c1)c1c(C(N)=O)[nH]c2ccc(Cl)cc12 (stereo not drawn) | > 20 | > 20 |
| COC(=O)C1=COC(C)C2CN3CCC4(C(=O)Nc5ccccc54)C3CC12 (stereo not drawn) | > 20 | > 20 |
| CC(=O)N[C@H]1[C@H](O[C@@H]2c3ccc(c(Cl)c3)Oc3cc4cc(c3O[C@@H]3O[C@H](CO)[C@@H](O)[C@H](O)[C@H]3NC(=O)CCCCCCC(C)C)Oc3ccc(cc3Cl)C[C@H]3NC(=O)[C@@H](N)c5ccc(O)c(c5)Oc5cc(O)cc(c5)[C@H](NC3=O)C(=O)N[C@H]4C(=O)N[C@H]3C(=O)N[C@@H]2C(=O)N[C@@H](C(=O)O)c2cc(O)cc(O[C@H]4O[C@H](CO)[C@@H](O)[C@H](O)[C@@H]4O)c2-c2cc3ccc2O)O[C@H](CO)[C@@H](O)[C@@H]1O | > 20 | > 20 |
| COc1ccc(Cl)cc1NC(=O)Cc1ccc(S(=O)(=O)Nc2ncc(CC(C)C)cn2)cc1 | > 20 | > 20 |
| CCC[C@]1(c2cccc(O)c2)CCN(C)C[C@@H]1C | > 20 | > 20 |
| NC(CO)Cc1ccccc1 (stereo not drawn) | > 20 | > 20 |
| NC(=O)c1cnc(N[C@@H]2CCCC[C@@H]2N)nc1Nc1cccc(-n2nccn2)c1 | > 20 | > 20 |
| C[C@@H](N)Cc1c[nH]cn1 | > 20 | > 20 |
| CC[N+](C)(CC)CCC[n+]1c(-c2ccccc2)c2cc(N)ccc2c2ccc(N)cc21 | > 20 | > 20 |
| Cc1cnc(C(=O)N[C@H]2CCCCC/C=C\[C@@H]3C[C@@]3(C(=O)NS(=O)(=O)C3CC3)NC(=O)[C@@H]3C[C@@H](Oc4nc5ccccc5c5ccccc45)CN3C2=O)cn1 | > 20 | > 20 |
| COc1cc(N2CCC(N(C)C)CC2)ccc1Nc1ncc(Cl)c(Nc2ccccc2P(C)(C)=O)n1 | > 20 | > 20 |
| O[C@H](CNC[C@@H](O)[C@H]1CCc2cc(F)ccc2O1)[C@@H]1CCc2cc(F)ccc2O1 | > 20 | > 20 |
| O=C(Cc1cccc(OC(F)(F)F)c1)Nc1ccc(CCCCc2nnc(NC(=O)Cc3ccccn3)s2)nn1 | > 20 | > 20 |
| O=C1c2ccccc2-c2c1c1ccccc1c(=O)n2CCNCCO | > 20 | > 20 |
| Cc1cc(-c2nc(CN3CCNCC3)no2)cc2c1C(=O)N(Cc1ccc(OC(F)(F)F)cc1)C2 | > 20 | > 20 |
| CS(=O)(=O)CCC#N | > 20 | > 20 |
| C[C@@H]1NC(=O)NC1=O | > 20 | > 20 |
